# Laboratory results taken from a melting point compilation (Tetko et al.; mined from patent text by program, amines drawn as free bases though some values may be those of a salt).
row,SMILES,melting point
1,Cc1c(-c2ccccc2)sc2ccc(Cl)cc12,108 to 110 °C
2,COc1ccc(-c2cncc(OC3SCC(O)C(O)C3O)c2)c(OC)c1 (configuration not stated),184 °C
3,CCOC(OCC)c1cc(NC(c2ccccc2)(c2ccccc2)c2ccccc2)c(F)c(-c2ccc(C(F)(F)F)nc2)n1,58 to 60 °C
4,CCn1nc2c(N)nc3ccccc3c2c1CC(C)C,208 to 209 °C
5,NNC(=S)Cc1ccc(F)cc1,150 to 152 °C
6,CC(C)c1n[nH]c2c(O)nc(O)nc12,295 to 298 °C
7,CCCCN(C)C(N)=C(C#N)C#N,160 to 161 °C
8,O=C(O)CCc1cnn2c(=O)[nH]cnc12,277 °C
9,COc1c(C(C)(C)C)cc(COc2ccc(C=C3SC(=S)NC3=O)cc2)cc1C(C)(C)C,213 to 218 °C
10,N#Cc1ccc(CN2C(=O)c3ccccc3C2=O)cc1,189 to 191 °C
11,CCCc1nc2c(N)nc3cc(F)ccc3c2o1,184 to 187 °C
12,COc1cccc(S(=O)(=O)Nc2ccc(Cl)nc2I)c1,154 °C
13,CN1C(=O)CC[C@]2(C)c3ccc(C=Cc4ccc5ccccc5n4)cc3CC[C@@H]12,233 to 236 °C
14,CC(C)(O)C#Cc1ncn2c1[C@@H]1CCCN1C(=O)c1ccccc1-2,128 °C
15,Cc1cccc(C(=O)c2[nH]c3cc(Cl)ccc3c2NC(=O)CC(C)C)c1,182 to 185 °C
16,CC(C(=O)O)c1ccc2oc(Cc3c(Cl)cccc3Cl)nc2c1 (configuration not stated),122 to 124 °C
17,NC(=Nc1ccc(CCNC(=O)c2cc(N)ccc2O)cc1)c1cccs1,> 260 °C
18,CCCCc1nc2c(N)nc(C)c(C)c2n1CCCCNS(C)(=O)=O,130 °C
19,CC(C)(O)C(O)c1cnc(C2OCCO2)s1 (configuration not stated),130 to 131 °C
20,Cn1cc(OS(C)(=O)=O)c(=O)c2ccc(S(C)=O)cc21 (configuration not stated),248 °C
21,O=C1NC[C@@H](c2ccccc2)O1,86 to 87 °C
22,CCCc1nsc(NC(=O)NC)c1C(=O)OCC,173 to 174 °C
23,O=C(Nc1n[nH]c2c(F)cccc12)c1ccccc1,232 °C
24,CC(C)(C)OC(=O)CN1CCOc2ccc([N+](=O)[O-])cc2C1=O,190 °C

row,SMILES,melting point
1,O=C(NN1CCOCC1)c1ccc(O)c(Br)c1,216 to 218 °C
2,CCCCc1nc2c(N)nc3ccc(OCC(=O)N(C)Cc4ccccc4)cc3c2n1C,167 to 169 °C
3,O=C1C(=Cc2ccccc2)C(=O)c2ccccc21,150 °C
4,Cn1c(=O)oc2cc(C(O)CCN3CCOCC3)ccc21 (configuration not stated),132 °C
5,CC(C)(C)OC(=O)NC[C@H]1CN(c2ccc3c(c2)CN(C(=O)OCc2ccccc2)CC3)C(=O)O1,135 to 137 °C
6,O=C(O)c1ccc(OCCc2c(CCNS(=O)(=O)Cc3ccccc3Cl)n(C(c3ccccc3)c3ccccc3)c3ccc(Cl)cc23)cc1F,132 to 135 °C
7,NC(=O)NC(=S)NC(=O)c1ccc(Cl)cc1,155 to 158 °C
8,COC(=O)C(=O)c1ccc(OCCOc2ccc(OC)cc2)cc1,114 to 115 °C
9,CC(C)(C)c1cc(CCc2ccccc2NC(=O)NCc2ccccn2)cc(C(C)(C)C)c1O,189 to 190 °C
10,COC(=O)C1C=CCN2C(=O)C(CCSC(C)=O)(Cc3ccccc3)C(=O)N12 (configuration not stated),161 to 162 °C
11,O=[N+]([O-])c1cc2c(Nc3ccc(F)c(Cl)c3)ncnc2cc1OC1CCC1,235 °C
12,COC(=O)c1ccc(CNC(=O)c2ccc3n2Cc2ccccc2N(C(=O)COc2ccc(Cl)cc2C)C3)cc1,165 to 167 °C
13,CCN(CC)CCNC(=O)c1nc2ccc(I)cc2[nH]1,136 to 138 °C
14,CC(=O)Nc1cccc(NC(=O)Cc2ccc(-n3c(-c4cccnc4N)nc4ccc(-c5cccnc5)nc43)cc2)c1,142 to 144 °C
15,CCOc1ccc(-c2ccc3c(c2)C=C(C(=O)OC(C)(C)C)CCN3C)cc1,140 to 142 °C
16,Cc1c(C(=O)Nc2ccc(N3CCC(N4CCOCC4)CC3)c(Br)c2)cnn1-c1ccc(C(F)(F)F)cc1,220 to 230 °C
17,O=C(CCCN1CCCCC1)c1ccc2[nH]c3ccc(C(=O)CCCN4CCCCC4)cc3c2c1,171 to 173 °C
18,O=c1ccoc(C(O)c2ccc(F)cc2)c1O (configuration not stated),154 to 156 °C
19,OC(CCCN1CC=C(c2ccccc2)CC1)c1ccc(F)cc1 (configuration not stated),116 to 117 °C
20,O=c1c2ccccc2sc2ccc(SCCO)cc12,94 °C
21,Cc1cccc(C(=O)CC(Cc2ccccc2)C(=O)O)c1 (configuration not stated),158 to 161 °C
22,CC(=O)NN=C(C)c1ccc2nnn(Cc3ccc4ncccc4c3)c2n1,249 to 251 °C
23,O=c1c2c(Cc3ccc(F)cc3)n[nH]c2c2cccnc2n1-c1ccccc1,271 to 274 °C
24,c1ccc(-c2nn3cnnc3c3ccccc23)cc1,198 to 199 °C

row,SMILES,melting point
1,Cc1ccc(N2CCc3ccccc32)c([N+](=O)[O-])c1,93 to 95 °C
2,COc1ccccc1NC(=O)Nc1nc(NCCC(=O)O)nc(Nc2ccccc2-c2ccccc2)n1,196 to 205 °C
3,CC1CC=C(Nc2ccccc2)c2ncc(C(=O)O)c(=O)n21 (configuration not stated),160 to 162 °C
4,COc1ccc(NN=C(Sc2ccc(Cl)c(Cl)c2)C(C)=O)cc1,109 to 113 °C
5,CC(=O)OC1CSC(Oc2ccc(C#N)nc2C)C(OC(C)=O)C1OC(C)=O (configuration not stated),128 to 131 °C
6,CCOC(=O)c1ncn2c1CN(C)C(=O)c1sccc1-2,160 to 162 °C
7,O=C(O)C1=Cc2ccc(Cl)cc2OC1C(F)(F)F (configuration not stated),175 to 178 °C
8,COC(=O)c1cc(Br)c(O)c(C(C)=O)c1,106 to 108 °C
9,CNC(=O)c1cc(OC)c(-c2ccc(C[C@H](NC(=O)c3c(Cl)cccc3Cl)C(=O)O)cc2)c(OC)c1,251 to 252 °C
10,Cc1cc2c(cc1C(F)(F)F)NCC2,43 to 44 °C
11,CCCN(CCC)C(=O)Cn1c(-c2ccc(C(F)(F)F)cc2)nc2cccnc21,138 to 139 °C
12,COC(=O)C1=C(O)c2ccccc2S(=O)(=O)N1,173 to 175 °C
13,Cc1cc(OCc2ccc(-c3ccccc3-c3nnn(C(c4ccccc4)(c4ccccc4)c4ccccc4)n3)cc2)c(-c2cncnc2)c(C)n1,171 to 172 °C
14,N#Cc1ncccc1OC1SCC(O)C(O)C1O (configuration not stated),174 °C
15,CC(C)c1ccc(C2c3cc(N)ccc3OC2(C)C)cc1 (configuration not stated),109 to 110 °C
16,CC1(C)C(=O)N(c2ccc(C#N)c(C(F)(F)F)c2)C(=O)N1CC=CCN1C(=O)N(c2ccc(C#N)c(C(F)(F)F)c2)C(=O)C1(C)C,188 to 190 °C
17,COP(=O)(CC(=O)COc1ccc(Cl)cn1)OC,37 to 40 °C
18,CC(=O)Nc1ccc(OC(F)(F)C(F)F)cc1[N+](=O)[O-],80 to 81 °C
19,CC1(C)Cc2nc(N)sc2C(C)(C)C1,120 to 122 °C
20,ON=C1c2ccccc2CCC1Cc1ccccc1 (configuration not stated),123 to 124 °C
21,CC(C)(C)n1ncc(OCc2ccc(OCc3ccc(F)cc3)nc2)c(Cl)c1=O,121 to 124 °C
22,CCOC(=O)c1cn(C)nc1OCc1ccc(OCc2nc(-c3ccccc3)oc2C)c(OC)c1,134 to 135 °C
23,COc1cc2c(cc1OC)C(C(=O)O)C(c1ccc(OCc3ccccc3)c(OCc3ccccc3)c1)N(C)C2=O (configuration not stated),194 to 196 °C
24,O=c1c(Cc2ccccc2)coc2cc(OS(=O)(=O)C(F)(F)F)ccc12,56 to 58 °C
